The text below walks through data of patent publication US20130096105A1, “ArylSulfonamide Based Matrix Metalloprotease Inhibitors” (NOVARTIS AG, priority 2008, published 2013).

The target in one experiment is T1, Gelatinase (MMP-2) (Homo sapiens, UniProt P08253).
T1 sequence (P08253 110-660): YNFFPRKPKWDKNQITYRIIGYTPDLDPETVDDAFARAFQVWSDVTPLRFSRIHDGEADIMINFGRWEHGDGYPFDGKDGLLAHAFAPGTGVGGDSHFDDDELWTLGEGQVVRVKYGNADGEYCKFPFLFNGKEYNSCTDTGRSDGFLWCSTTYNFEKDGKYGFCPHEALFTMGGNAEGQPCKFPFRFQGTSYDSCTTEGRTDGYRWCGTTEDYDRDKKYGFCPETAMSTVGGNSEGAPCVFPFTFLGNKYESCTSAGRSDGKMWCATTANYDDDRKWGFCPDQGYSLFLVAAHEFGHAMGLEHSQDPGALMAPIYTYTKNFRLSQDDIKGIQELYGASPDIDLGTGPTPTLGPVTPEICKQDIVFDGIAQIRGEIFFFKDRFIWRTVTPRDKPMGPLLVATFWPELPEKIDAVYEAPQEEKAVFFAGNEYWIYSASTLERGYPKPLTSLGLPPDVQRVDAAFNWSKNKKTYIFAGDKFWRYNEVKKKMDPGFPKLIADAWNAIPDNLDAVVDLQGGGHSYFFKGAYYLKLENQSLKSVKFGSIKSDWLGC
Nature of the experiment: Gelatinase (MMP-2) inhibitory activity, fluorogenic peptide substrate cleavage. The format is biochemical. The following applies: read-out: MMP02 IC50. The method, then:
(§1) Gelatinase (MMP-2) inhibitory activities can be determined as follows: Stock solutions of substrate (MCA-Lys-Pro-Leu-Gly-Leu-Dpa-Ala-Arg-NH2) are prepared in DMSO at a concentration of 1.4 mM. Stock solutions of inhibitors (0.03 μM-3 mM) are also prepared in DMSO. The inhibitors are diluted into the assay solutions, and the controls use an equal volume of DMSO so that the final DMSO concentration from the inhibitor and substrate dilutions in all assays is 1.0%. Assays are performed in an assay buffer (100 mM sodium chloride, 10 μM ZnCl. Sub 2, 10 mM CaCl2, 100 mM Tris-Cl pH7.5, 0.05% Brij-35), containing 1.0% DMSO from the substrate and inhibitor additions. The substrate concentration used in the assays is 5 μM. The assays are carried out at 20-25° C. The fluorescence changes, as a result of substrate cleavage, are monitored using an excitation wavelength of 325 nm and an emission wavelength of 405 nm. The reaction mixtures are added in duplicate into appropriate wells of a 384-well assay plate. The reaction mixtures are preincubated with the inhibitors for 60 minutes The reactions are started by the addition of MMP substrate, and the fluorescence intensity changes are measured after 60 minutes The apparent enzyme activity in the presence of an inhibitor is then compared with that in the absence of any inhibitor to determine the inhibition effect of the inhibitor. These techniques are within the knowledge of one skilled in the art. The inhibition results are expressed as the inhibitor concentrations required to effect 50% inhibition (IC50) of the enzyme activity, as compared with the control (non-inhibited) reactions.

For a further experiment, the target named is Collagenase-3 (MMP-13) (Homo sapiens, UniProt P45452). Nature of the experiment: Collagenase-3 (MMP-13) inhibitory activity, fluorogenic peptide substrate cleavage. The format is biochemical. The following applies: read-out: MMP13 IC50. The method, then:
as §1
Collagenase-3 (MMP-13) inhibitory activity is determined as described above. Recombinant pro-collagenase-3 is activated with 1 mM APMA, and stored in the assay buffer after extensive dialysis in the assay buffer.

In general, IC50 refers to the concentration that gives 50% inhibition. As for `COCCCc1cc(-c2c[nH]c3cc(C(=O)c4cccc(S(N)(=O)=O)c4)ccc23)ccn1` [Example 11, 3-{3-[2-(3-Methoxy-propyl)-pyridin-4-yl]-1H-indole-6-carbonyl}-benzenesulfonamide], the IC50 is 3.95 µM on Gelatinase (MMP-2) and 0.075 µM on Collagenase-3 (MMP-13).
With `NS(=O)(=O)c1cc(C(=O)c2ccc(C(=O)NCCc3ccccc3)cc2)ccc1Cl` [Example 54, 4-(4-Chloro-3-sulfamoyl-benzoyl)-N-phenethyl-benzamide], the IC50 came to 23.4 µM at Gelatinase (MMP-2) and 27.1 µM at Collagenase-3 (MMP-13).
In the case of `CC(=O)Nc1cccc(-c2ccc(C(=O)c3ccc(Cl)c(S(N)(=O)=O)c3)cc2)c1` [Example 70, N-[4′-(4-Chloro-3-sulfamoyl-benzoyl)-biphenyl-3-yl]-acetamide], the figures for the IC50 on Gelatinase (MMP-2) and on Collagenase-3 (MMP-13) were 11.4 µM and 4.01 µM, respectively.
As for `NS(=O)(=O)c1cc(C(=O)c2ccc3c(-c4cncnc4)c[nH]c3c2)ccc1Cl` [Example 131, 2-Chloro-5-(3-pyrimidin-5-yl-1H-indole-6-carbonyl)-benzenesulfonamide], the IC50 on Gelatinase (MMP-2) came out at 4 µM; at Collagenase-3 (MMP-13), 0.195 µM.
The matching figures for `CCCCCCOc1ccc(C(=O)c2ccc(Cl)c(S(N)(=O)=O)c2)cc1` [Example 21, 2-Chloro-5-(4-hexyloxy-benzoyl)-benzenesulfonamide]: 4.73 µM and 0.86 µM.
The matching figures for `NS(=O)(=O)c1cc(C(=O)c2ccc3c(-c4ccc(C(=O)N5CCOCC5)cc4)c[nH]c3c2)ccc1Cl` [Example 132, 2-Chloro-5-{3-[4-(morpholine-4-carbonyl)-phenyl]-1H-indole-6-carbonyl}-benzenesulfonamide]: 16 µM and 0.73 µM.
On to `NS(=O)(=O)c1cc(C(=O)c2ccc3c(-c4ccc(-c5ccccc5)cc4)c[nH]c3c2)ccc1Cl` [Example 126, 5-(3-Biphenyl-4-yl-1H-indole-6-carbonyl)-2-chloro-benzenesulfonamide], for which the IC50 was 22.8 µM at Gelatinase (MMP-2) and 10 µM at Collagenase-3 (MMP-13).
The matching figures for `NS(=O)(=O)c1cc(C(=O)c2ccc3c(c2)[nH]c2ccccc23)ccc1Cl` [Example 102, 5-(9H-Carbazole-2-carbonyl)-2-chloro-benzenesulfonamide]: 1.01 µM and 2.71 µM.
The matching figures for `CC(C)CCn1ccc2cc(C(=O)c3ccc(Cl)c(S(N)(=O)=O)c3)ccc21` [Example 117, 2-Chloro-5-[1-(3-methyl-butyl)-1H-indole-5-carbonyl]benzenesulfonamide]: 26.7 µM and 23 µM.
The matching figures for `NS(=O)(=O)c1cc(C(=O)c2ccccc2)ccc1Cl` [Example 49, 5-Benzoyl-2-chloro-benzenesulfonamide]: over 30 µM and 24.8 µM.
`CCCNC(=O)c1ccc(C(=O)c2ccc(Cl)c(S(N)(=O)=O)c2)cc1` [Example 33, 4-(4-Chloro-3-sulfamoyl-benzoyl)-N-propyl-benzamide]: the values for the IC50 at Gelatinase (MMP-2) and at Collagenase-3 (MMP-13) were over 30 µM and 2.59 µM, respectively.
The matching figures for `CC(C)(C)C(=O)N1CCc2c([nH]c3ccc(C(=O)c4ccc(Cl)c(S(N)(=O)=O)c4)cc23)C1` [Example 106, 2-Chloro-5-[2-(2,2-dimethyl-propionyl)-2,3,4,9-tetrahydro-1H-beta-carbolise-6-carbonyl]-benzenesulfonamide]: over 2.7 µM and 0.95 µM.
The matching figures for `NS(=O)(=O)c1cc(C(=O)c2ccc(-c3ccc(C=O)cc3)cc2)ccc1Cl` [Example 72, 2-Chloro-5-(4′-formyl-biphenyl-4-carbonyl)-benzenesulfonamide]: 0.18 µM and 0.13 µM.
The matching figures for `NS(=O)(=O)c1cc(C(=O)c2ccc(-c3ccc(C(F)(F)F)cc3)cc2)ccc1Cl` [Example 62, 2-Chloro-5-(4′-trifluoromethyl-biphenyl-4-carbonyl)-benzenesulfonamide]: 2.21 µM and 0.83 µM.
For `CC(C)COc1ccc(C(=O)c2ccc(Cl)c(S(N)(=O)=O)c2)cc1` [Example 58, 2-Chloro-5-(4-isobutoxy-benzoyl)-benzenesulfonamide], the IC50 was over 30 µM on Gelatinase (MMP-2) and 24.2 µM at Collagenase-3 (MMP-13).
On to `CC(C)(C)c1ccc(C(=O)c2ccc(Cl)c(S(N)(=O)=O)c2)cc1` [Example 26, 5-(4-tert-Butyl-benzoyl)-2-chloro-benzenesulfonamide], for which the IC50 on Gelatinase (MMP-2) was found to be 17.2 µM; at Collagenase-3 (MMP-13), 10.5 µM.
The matching figures for `NS(=O)(=O)c1cc(C(=O)c2ccc(Br)cc2)ccc1Cl` [Example 23, 5-(4-Bromo-benzoyl)-2-chloro-benzenesulfonamide]: 4.15 µM and 0.95 µM.
Regarding `NS(=O)(=O)c1cc(C(=O)c2ccc(Br)cc2)ccc1Cl` [Example 22, 5-(4-Bromo-benzoyl)-2-chloro-benzenesulfonamide], the figures for the 50% inhibitory concentration (IC50) on Gelatinase (MMP-2) and on Collagenase-3 (MMP-13) were 14 µM and 2.05 µM, respectively.
As for `CCOC(=O)N1CCc2[nH]c3ccc(C(=O)c4ccc(Cl)c(S(N)(=O)=O)c4)cc3c2C1` [Example 104, 8-(4-Chloro-3-sulfamoyl-benzoyl)-1,3,4,5-tetrahydro-pyrido[4,3-b]indole-2-carboxylic acid ethyl ester], the half-inhibitory concentration (IC50) at Gelatinase (MMP-2) was found to be 21.4 µM; on Collagenase-3 (MMP-13), 1.9 µM.
Regarding `N#Cc1ccc(C(=O)c2ccc(Cl)c(S(N)(=O)=O)c2)cc1` [Example 44, 2-Chloro-5-(4-cyano-benzoyl)-benzenesulfonamide], the IC50 was found to be 0.62 µM on Gelatinase (MMP-2) and 0.56 µM at Collagenase-3 (MMP-13).
The matching figures for `COc1cc(-c2c[nH]c3cc(C(=O)c4ccc(Cl)c(S(N)(=O)=O)c4)ccc23)c(Cl)cn1` [Example 134, 2-Chloro-5-[3-(5-chloro-2-methoxy-pyridin-4-yl)-1H-indole-6-carbonyl]-benzenesulfonamide]: 23 µM and 0.1 µM.
On to `COc1ccc(C(=O)c2ccc(C)c(S(N)(=O)=O)c2)cc1` [Example 6, 5-(4-Methoxy-benzoyl)-2-methyl-benzenesulfonamide], for which the IC50 was determined as 2.78 µM on Gelatinase (MMP-2) and 4.51 µM on Collagenase-3 (MMP-13).
In the case of `CC1CCCN(c2ccc(C(=O)c3ccc(Cl)c(S(N)(=O)=O)c3)cc2)C1` (stereo not shown) [Example 84, 2-Chloro-5-[4-(3-methyl-piperidin-1-yl)-benzoyl]-benzenesulfonamide], the IC50 was found to be 1.35 µM on Gelatinase (MMP-2) and 7.54 µM on Collagenase-3 (MMP-13).
As to `NS(=O)(=O)c1cc(C(=O)c2ccc3c(-c4ccnc(C5CC5)c4)c[nH]c3c2)ccc1Cl` [Example 139, 2-Chloro-5-[3-(2-cyclopropyl-pyridin-4-yl)-1H-indole-6-carbonyl]-benzenesulfonamide], the IC50 was determined as 4.15 µM on Gelatinase (MMP-2) and 0.068 µM at Collagenase-3 (MMP-13).
The matching figures for `COc1ccc(C(=O)c2ccc(Cl)c(S(=O)(=O)NCCc3ccccc3)c2)cc1` [Example 12, 2-Chloro-5-(4-methoxy-benzoyl)-N-phenethyl-benzenesulfonamide]: 9.13 µM and 3.04 µM.
Take `NS(=O)(=O)c1cc(C(=O)c2ccc(OC(F)(F)F)cc2)ccc1Cl` [Example 25, 2-Chloro-5-(4-trifluoromethoxy-benzoyl)-benzenesulfonamide]: the results for the IC50 at Gelatinase (MMP-2) and on Collagenase-3 (MMP-13) were 2.17 µM and 5.3 µM, respectively.
With `NS(=O)(=O)c1cc(C(=O)c2ccc3ccccc3c2)ccc1Cl` [Example 93, 2-Chloro-5-(naphthalene-2-carbonyl)benzenesulfonamide], the half-inhibitory concentration (IC50) stood at 26.5 µM on Gelatinase (MMP-2) and 13.7 µM at Collagenase-3 (MMP-13).
With `NS(=O)(=O)c1cc(C(=O)c2ccc(C(=O)NCCc3ccccn3)cc2)ccc1Cl` [Example 36, 4-(4-Chloro-3-sulfamoyl-benzoyl)-N-(2-pyridin-2-yl-ethyl)-benzamide], the IC50 was found to be 14.9 µM at Gelatinase (MMP-2) and 8.54 µM on Collagenase-3 (MMP-13).
The matching figures for `NS(=O)(=O)c1cc(C(=O)c2cc[nH]c2)ccc1Cl` [Example 95, 2-Chloro-5-(1H-pyrrole-3-carbonyl)-benzenesulfonamide]: 3.97 µM and 6.21 µM.
